Assay results reported in patent publication US20180066231A1, “MESENCHYMAL STEM CELL CULTURE MEDIUM, METHODS FOR CULTURING MESENCHYMAL STEM CELLS, AND MESENCHYMAL STEM CELLS” (ROHTO PHARMACEUTICAL CO., LTD., priority 2015, published 2018).

Tested on: Umbilical cord derived mesenchymal stem cells (UC-MSC)
Assay: Test 4: induction of oxidative stress resistance (Rotenone treatment, nucleus count)
Format: cell-based
Details: Rotenone 0 nM, 100 nM, 200 nM, 500 nM, 1 μM; after 48 hours; FIG. 11
Protocol: (UC-MSC; Umbilical Cord derived Mesenchymal Stem Cells Wharton's Jelly (HMSC-WJ), FC-0020, LIFELINE CELL TECHNOLOGY Co., Ltd.; UC-MSC; Umbilical Cord derived Mesenchymal Stem Cells ScienCell Research Laboratories, Inc; and Umbilical Cord derived Mesenchymal Stem Cells ATCC) were conditioned with a recommended medium of each entity at 37° C. under 5% of CO2, and they were exchanged with the recommended medium of each entity or the medium of Example 1 (0.3-1×10^5 cells/well; 6 well plate). The passage was carried out every 2 to 3 days and those cells were treated with Rotenone of the following concentrations (0 nM, 100 nM, 200 nM, 500 nM, 1 μM). After 48 hours, these cells were stained with Hoechest33258 and the number of nucleus was counted using ImageXpress (Molecular Devices, LLC.).

C=C(C)[C@H]1Cc2c(ccc3c2O[C@@H]2COc4cc(OC)c(OC)cc4[C@@H]2C3=O)O1 [Rotenone]
cell number of UC-MSC: decreases in a concentration dependent manner
